From patent publication US20150086655A1, “Morinda Citrifolia Juice Formulations Comprising Iridoids” (priority 2013, published 2015) come the findings set out here.

The subject of series [1] is E. coli PQ37. The series is described as follows: Primary DNA damage test (SOS-chromotest). Type of series: cell-based. The conditions noted are these: all concentrations tested (7.81-1000 μg mL^−1). The method, then:
The SOS-chromotest in E. coli PQ37 was used to determine the potential for DAA and AA to induce primary DNA damage. This test was carried out according to the previously developed method (Fish et al., 1987). […] E. coli PQ37 was incubated in LB medium in a 96-well plate at 37° C. in the presence of DAA or AA for 2 hours. The DAA and AA concentrations tested were 7.81, 15.6, 31.2, 62.5, 125, 250, 500, and 1000 μg mL^−1. Samples were evaluated in triplicate. […] Induction factors less than two indicate an absence of genotoxic activity.

The nature of series [2]: Thermal stability of DAA under pasteurization conditions (HPLC). The series is classed as physicochemical. The conditions noted are these: 90° C. at pH 3.3 for one minute. The protocol:
Tahitian noni fruit puree as used in this example is the mashed whole fruit, excluding seeds and pericarp. The fruits were originally collected from the Tahitian Islands. One gram of the puree was diluted with 5 mL of H2O-MeOH (1:1) and mixed thoroughly. The solution was then filtered through a nylon microfilter (0.45-μm pore size); the solution was collected into a 5 mL volumetric flask for HPLC analysis. Four batches of noni puree were analyzed in the experiments. Voucher specimens of the noni fruit puree are deposited in our lab. To test iridoid stability, a DAA solution of 0.5 mg/mL was prepared with MeOH. This solution was heated in a water-bath at 90° C. for 1 min, cooled to room temperature, and analyzed by HPLC.
Noni fruit juice is usually subjected to heat pasteurization during commercial processing. Pasteurization is usually employed in noni industry, i.e., heating up to 87.7° C. for several seconds. In this study, the stability of DAA was conducted. DAA was exposed to 90° C. at pH 3.3 for one minute to determine its thermal stability at acidic conditions.

In series [3] the test system is E. coli PQ37. Type of series: cell-based. To be noted: 250 ug mL^−1 iridoid plus 1.25 ug mL^−1 4NQO. The method, then: The SOS-chromotest in E. coli PQ37 was used to determine the potential for iridoids in noni fruit from French Polynesia to prevent primary DNA damage. E. coli PQ37 was incubated at 37° C. in the presence of deacetylasperulosidic acid and asperulosidic acid at a concentration of 250 ug mL^−1 in a 96-well plate. Replicate samples were evaluated.

Regarding `CC(=O)OCC1=C[C@H](O)[C@@H]2C(C(=O)O)=CO[C@@H](O[C@@H]3O[C@H](CO)[C@@H](O)[C@H](O)[C@H]3O)[C@H]12` [AA, asperulosidic acid], the “induction of SOS repair versus blank” value in series [1] is listed as “did not induce any SOS repair”.
In the case of `O=C(O)C1=CO[C@@H](O[C@@H]2O[C@H](CO)[C@@H](O)[C@H](O)[C@H]2O)[C@@H]2C(CO)=C[C@H](O)[C@H]12` [DAA, deacetylasperulosidic acid], the “DAA content before and after heating (thermal stability)” value in series [2] is “no difference in the DAA contents before and after heating”. Besides, in series [3], the “induction factors (mean±standard deviation)” value turned out to be 0.98±0.02. Further, the “induction of SOS repair versus blank” value in series [1] is reported as “did not induce any SOS repair”.
